# pIC50: −log10 of the molar value.
# How the values were obtained:
# [1] = target: T1, hormone-sensitive lipase (HSL) (Rattus norvegicus, UniProt P15304); assay: HSL enzyme assay (NAG assay) with partially purified HSL; assay type: biochemical; settings: inhibition of HSL enzymatic activity; partially purified HSL from rat fat cells; NAG substrate; 30° C., 60 min
# T1 construct: Isolated rat fat cells are obtained from epididymal adipose tissue from untreated male rats; from tissue; host or cells: rat (Wistar) epididymal adipose tissue, isolated fat cells
# T1 sequence (P15304 1-768 isoform P15304-2): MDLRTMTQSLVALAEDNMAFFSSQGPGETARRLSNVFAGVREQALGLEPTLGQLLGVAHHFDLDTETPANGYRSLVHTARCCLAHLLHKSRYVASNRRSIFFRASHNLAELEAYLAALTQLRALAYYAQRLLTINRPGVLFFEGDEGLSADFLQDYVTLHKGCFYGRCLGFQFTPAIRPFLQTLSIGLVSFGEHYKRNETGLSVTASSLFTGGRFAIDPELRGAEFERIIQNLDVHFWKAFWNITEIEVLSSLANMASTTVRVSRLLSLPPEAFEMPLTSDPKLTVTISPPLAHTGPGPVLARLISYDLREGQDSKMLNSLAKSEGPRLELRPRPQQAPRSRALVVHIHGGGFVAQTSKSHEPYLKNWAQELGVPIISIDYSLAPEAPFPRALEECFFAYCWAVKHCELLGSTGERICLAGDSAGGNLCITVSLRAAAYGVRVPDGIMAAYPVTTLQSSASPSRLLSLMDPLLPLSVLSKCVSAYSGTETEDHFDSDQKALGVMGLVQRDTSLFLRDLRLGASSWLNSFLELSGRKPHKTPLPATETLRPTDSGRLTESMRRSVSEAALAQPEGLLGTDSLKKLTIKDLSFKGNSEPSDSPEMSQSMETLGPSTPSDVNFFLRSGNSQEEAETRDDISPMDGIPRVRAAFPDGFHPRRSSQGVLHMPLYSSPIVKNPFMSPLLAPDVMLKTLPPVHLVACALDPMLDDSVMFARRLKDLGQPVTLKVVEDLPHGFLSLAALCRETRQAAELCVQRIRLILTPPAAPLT
# Procedure: The effect of the compounds of the invention of the formula I is tested in the following enzyme assay system: […]
# Preparation of the Partially Purified HSL:
# Isolated rat fat cells are obtained from epididymal adipose tissue from untreated male rats (Wistar, 220-250 g) by collagenase treatment in accordance with published methods (e.g. S, Nilsson et al., Anal. Biochem. 158, 1986, 399-407; G. Fredrikson et al., J. Biol. Chem. 256, 1981, 6311-6320; H. Tornquist et al., J. Biol. Chem. 251, 1976, 813-819). The fat cells from 10 rats are washed three times by flotation with 50 ml of homogenization buffer ([…] Tris/HCl, pH 7.4, 0.25 M sucrose, 1 mM EDTA, 1 mM DTT, 10 μg/ml leupeptin, 10 μg/ml antipain, 20 μg/ml pepstatin) each time and finally taken up in 10 ml of homogenization buffer. The fat cells are homogenized in a Teflon-in-glass homogenizer (Braun-Melsungen) by 10 strokes at 1500 rpm and 15° C. The homogenate is centrifuged (Sorvall SM24 tubes, 5000 rpm, 10 min, 4° C.). The subnatant between the layer of fat at the top and the pellet is removed and the centrifugation is repeated. The subnatant resulting therefrom is centrifuged again (Sorvall SM24 tubes, 20 000 rpm, 45 min, 4° C.). […] After incubation at 4° C. for 60 min (shaking at intervals of 15 min), the mixture is centrifuged (Sorvall SM24 tubes, 3000 rpm, 10 min, 4° C.). The supernatant is adjusted to pH 5.2 by adding glacial acetic acid and is incubated at 4° C. for 30 min. The precipitates are collected by centrifugation (Sorvall SS34, 12 000 rpm, 10 min, 4° C.) and suspended in 2.5 ml of 20 mM Tris/HCl, pH 7.0, 1 mM EDTA, 65 mM NaCl, 13% sucrose, 1 mM DTT, 10 μg/ml leupeptin/pepstatin/antipain. The suspension is dialyzed against 25 mM Tris/HCl, pH 7.4, 50% glycerol, 1 mM DTT, 10 μg/ml leupeptin, pepstatin, antipain at 4° C. overnight and then loaded onto a hydroxiapatite column (0.1 g per 1 ml of suspension, equilibrated with 10 mM potassium phosphate, pH 7.0, 30% glycerol, 1 mM DTT). The column is washed with four volumes of equilibration buffer at a flow rate of 20 to 30 ml/h. The HSL is eluted with one volume of equilibration buffer containing 0.5 M potassium phosphate and then dialyzed (see above) and concentrated 5- to 10-fold by ultrafiltration (Amicon Diaflo PM 10 Filter) at 4° C. The partially purified HSL can be stored at −70° C. for 4 to 6 weeks.
# Preparation of NAG (NBD Monoacyl Glyceride) Substrate:
# 6 mg of phosphatidylcholine and 6 mg of phosphatidylinositol are each dissolved in 1 ml of chloroform. 10 mg of NAG are dissolved in 1 ml of chloroform. Two parts of phosphatidylinositol solution (e.g. 83.5 μl) and one part of phosphatidylcholine solution (e.g. 41.5 μl) and 100 μl of NAG solution are pipetted together into plastic scintillation vessels (final concentration in the assay: 0.0375 mg of phospholipid/ml; 0.05 mg/NAG/ml). The chloroform (225 μl total volume) is completely removed by passing a stream of N2 over it. The dried substrate can be stored at 4° C. for up to 3 days. To prepare the phospholipid vesicles/micelles with intercalated NAG (on the day of the assay), the dried substrate is taken up in 20 ml of assay buffer (25 mM Tris/HCl, pH 7.4; 150 mM NaCl) and two ultrasound treatments carried out with an ultrasonic probe (Branson Sonifier Type II, standard microtip): 1st treatment setting 2, 2×1 min, in between 1 min on ice each time; 2nd treatment setting 4, 2×1 min, in between 1 min on ice each time. During this procedure, the color of the substrate solution changes from yellow (extinction maximum 481 nm) to red (extinction maximum 550 nm) owing to intercalation of NAG between the phospholipid molecules in the vesicles/micelles. Before use as substrate (within the next 2 h), the solution is incubated on ice for 15 min.
# The assay is carried out in 1.5 ml Eppendorf vessels or 96-well plates at 30° C. for 60 min. […]
pIC50 [1],melting point,Compound
6.15,126 °C,"CC(C)CN(CC(C)C)S(=O)(=O)c1cc(S(=O)(=O)N=CN(C)C)c(Cl)cc1N [Example 29, 2-Amino-4-chloro-5-dimethylaminomethylenesulfamoyl-N-diisobutylbenzenesulfonamide]"
7.52,–,"CCCCN(CCCC)S(=O)(=O)c1cc(S(=O)(=O)N=CN(C)C)c(Cl)cc1N [Example 28, 2-Amino-4-chloro-5-dimethylaminomethylenesulfamoyl-N-dibutylbenzenesulfonamide]"
–,110 °C,"CCCCCCCCNS(=O)(=O)c1cc(S(=O)(=O)N=CN(C)C)c(Cl)cc1N [Example 38, 2-Amino-4-chloro-5-dimethylaminomethylenesulfamoyl-N-octylbenzenesulfonamide]"
6.15,> 185 °C (dec.),"CN(C)C=NS(=O)(=O)c1cc(S(=O)(=O)NC2CCCCC2)c(N)cc1C(F)(F)F [Example 48, 2-Amino-4-trifluoromethyl-5-dimethylaminomethylenesulfamoyl-N-cyclohexyl-benzenesulfonamide]"
–,216 °C,"Cc1cc(C)cc(NC(=O)c2ccc(Cl)c(S(=O)(=O)N=CN(C)C)c2)c1 [Example 12, 4-Chloro-3-(dimethylaminomethylenesulfamoyl)-N-(3,5-dimethylphenyl)benzamide]"
–,192 °C,"CN(C)C=NS(=O)(=O)c1cc(C(=O)NC2CC(C)(C)NC(C)(C)C2)ccc1Cl [Example 11, 4-Chloro-3-(dimethylaminomethylenesulfamoyl)-N-(2,2,6,6-tetramethylpiperidin-4-yl)-benzamide]"
–,122 °C (dec.),"CC(C)N(C1CCCCC1)S(=O)(=O)c1cc(S(=O)(=O)N=CN(C)C)c(Cl)cc1N [Example 34, 2-Amino-4-chloro-5-dimethylaminomethylenesulfamoyl-N-cyclohexyl-N-isopropyl-benzenesulfonamide]"
–,167 °C,"CN(C)C=NS(=O)(=O)c1cc(C(=O)NCc2ccccc2Cl)ccc1Cl [Example 16, 4-Chloro-3-(dimethylaminomethylenesulfamoyl)-N-(2-chlorophenylmethyl)benzamide]"
6.30,–,"CC1CC(N(Cc2ccc(Cl)c(S(=O)(=O)N=CN(C)C)c2)S(C)(=O)=O)CC(C)(C)C1 (stereo not shown) [Example 21, 6-Chloro-N-dimethylaminomethylene-3-[(N-(3,3,5-trimethylcyclohexyl)-N-methylsulfonylamino)methyl]benzenesulfonamide]"
–,> 165 °C (dec.),"CC1CC(NS(=O)(=O)c2cc(S(=O)(=O)N=CN(C)C)c(C(F)(F)F)cc2N)CC(C)(C)C1 (stereo not shown) [Example 26, 2-Amino-4-trifluoromethyl-5-dimethylaminomethylenesulfamoyl-N-(3,3,5-trimethyl-cyclohexyl)benzenesulfonamide]"
6.70,90 °C,"C=CCN(C1CCCCC1)S(=O)(=O)c1cc(S(=O)(=O)N=CN(C)C)c(Cl)cc1N [Example 33, 2-Amino-4-chloro-5-dimethylaminomethylenesulfamoyl-N-cyclohexyl-N-allyl-benzenesulfonamide]"
9.00,100 °C,CC1CC(NS(=O)(=O)c2cc(S(=O)(=O)N=CN(C)C)c(Cl)cc2N)CC(C)(C)C1 (stereo not shown) [Example 32]
6.82,–,"CC1CC(NS(=O)(=O)c2ccc(Cl)c(S(=O)(=O)N=CN(C)C)c2)CC(C)(C)C1 (stereo not shown) [Example 23, 6-Chloro-N-dimethylaminomethylene-3-(3,3,5-trimethylcyclohexylaminosulfonyl]benzenesulfonamide]"
–,89 °C,"COc1ccc(S(=O)(=O)N=CN(C)C)cc1CN1CC(C)CC(C)C1 (stereo not shown) [Example 8, N-Dimethylaminomethylene-4-methoxy-3-[(3,5-dimethylpiperidino)methyl]benzenesulfonamide]"
–,123 °C,"CN(C)C=NS(=O)(=O)c1cc(S(=O)(=O)N2CCCC(C)(C)C2)ccc1Cl [Example 24, 6-Chloro-N-dimethylaminomethylene-3-(3,3-dimethylpiperidinosulfonyl]-benzenesulfonamide]"
–,180 °C,"CC1CC(NC(=O)c2ccc(Cl)c(S(=O)(=O)N=CN(C)C)c2)CC(C)(C)C1 (stereo not shown) [Example 10, 4-Chloro-3-(dimethylaminomethylenesulfamoyl)-N-(3,3,5-trimethylcyclohexyl)benzamide]"
6.40,137 °C,"Cc1cc(C)cc(OCc2ccc(Cl)c(S(=O)(=O)N=CN(C)C)c2)c1 [Example 19, 6-Chloro-N-dimethylaminomethylene-3-[(3,5-dimethylphenoxy)methyl]benzenesulfonamide]"
